How the values were obtained:
[1] = target: T1, recombinant human Wee1A kinase (Homo sapiens, UniProt P30291); test: LanthaScreen Europium (Eu) Kinase Binding Assay, Wee1A kinase (TR-FRET tracer displacement); details: 30 nM tracer 178, 5 nM Wee1A kinase, 60 minutes at room temperature
T1 construct: full length Wee1A kinase was expressed by baculovirus in insect cells; purchased Invitrogen PV3817; host or cells: insect cells (baculovirus)
Excerpt: We used a LanthaScreen Europium (Eu) Kinase Binding Assay to determine the binding of provided compounds to Wee1A kinase. The assay utilizes an Alexa Fluor 647-labeled ATP competitive kinase tracer that binds to the ATP binding site of a GST-tagged Wee1A kinase, while a europium (Eu) labeled antibody binds to the GST tag. The proximity of fluorescently labeled kinase tracer and europium (Eu) donor fluorophore antibody leads to fluorescence resonance energy transfer (FRET) to the fluorescence label (acceptor) upon excitation of the Eu (donor). Displacement of tracer from the ATP-binding site by a test compound disturbs the proximity between both labels thus lowering the FRET.
This time resolved-FRET binding assay was performed in white 384-well low volume plates (Greiner, cat #784075), at room temperature in kinase buffer A (KBA; Invitrogen cat #PV3189), consisting of 50 mM HEPES-NaOH (pH 7.5), 0.01% Brij-35, 10 mM MgCl2, and 1 mM EGTA. 5 μl of compound (diluted in reaction buffer, to 1% DMSO) were added to various wells in the plate, followed by 5 μl each of recombinant human Wee1A kinase (full length Wee1A kinase was expressed by baculovirus in insect cells using a N-terminal GST tag (MW: 99.1 kDa) (Invitrogen cat #PV3817) and LanthaScreen Eu-anti-GST antibody (Invitrogen, cat #PV5594). After this, 5 μl of kinase tracer 178 (Invitrogen, cat #PV5593) was added to the plate and the plate was incubated for 60 minutes at room temperature. The final assay conditions in each well were: 30 nM tracer 178, 5 nM Wee1A kinase and 2 nM Eu-labeled antibody in total assay volume of 15 μl. An Envision 2104 (Perkin-Elmer) Plate Reader with the following time-resolve fluorescence setting was used for performing LanthaScreen kinase binding assay. • Excitation 320 nm (30 nm bandpass) • Kinase Tracer Emission 665 nm (10 nm bandpass) • LanthaScreen Eu-anti-Tag Antibody Emission 615 nm (10 nm bandpass) • Dichroic Mirror Instrument dependent • Delay Time 100 μs • Integration Time 200 μs
To calculate the emission ratio, the acceptor/tracer emission ([…]) was divided by the antibody/donor emission ([…]) and the average of duplicate measurement was used for calculations. Data plotting, analysis of binding, and curve fitting was done using Excel add-in XLfit version 5.5.0.5 (IDBS, Guildford, United Kingdom).

[2] = system: Cdk1 phosphorylated on tyrosine 15; test: High-content imaging of pCdk1 Y15 by immunofluorescence in ACHN cells; assay type: cell-based; details: Homo sapiens, high-content imaging (IF), 4 h, 7 to 5000 nM, read-out: CDK1 Tyr15 Phosphorylation EC50 (IC50)
Method: ACHN renal cell carcinoma cell line (ATCC) was cultured in Minimum Essential Medium Eagle supplemented with 10% fetal calf serum (Sigma), 1% Penicillin-Streptomycin and 10 mM HEPES buffer (HyClone). Cell cultures were kept in a humidified incubator at 37° C. and 5% CO2. Cells were routinely tested for Mycoplasma contamination.
High-content imaging of ACHN renal cell carcinoma cells was used for quantification of CDK1 phosphorylated on tyrosine 15 by immunofluorescence (“IF”). 20 000 cells per well were seeded in tissue culture treated 96 well plates and treated with compounds at concentrations ranging from 7 to 5000 nM for 4 h. Cells were fixated for 15 minutes in 4% paraformaldehyde solution, washed in PBS and permeabilized using 0.2% Triton X-100. Blocking was performed for 1 h at RT using Blocker FL Fluorescent Blocking Buffer (Thermo Scientific), thereafter cells were incubated with primary antibody (rabbit anti-pCDK1 Y^15, #4539, Cell Signaling Technology) at 4° C. ON. Alexa Fluor Plus 647 labelled goat anti-rabbit (A32733. Thermo Scientific) was used as secondary antibody. After washing in PBS, nuclei were stained with DAPI solution for 10 min at RT, protected from light. Cells were imaged using an ImageXpress Pico automated imaging system and CellReporter Xpress software (Molecular Devices). The percentage cells with nuclear positivity for pCdk1 Y^15 compared to DMSO control was determined for each well and drug dose response curves and EC50 values were calculated and visualized using GraphPad Prism.

T1 sequence (P30291 whole entry): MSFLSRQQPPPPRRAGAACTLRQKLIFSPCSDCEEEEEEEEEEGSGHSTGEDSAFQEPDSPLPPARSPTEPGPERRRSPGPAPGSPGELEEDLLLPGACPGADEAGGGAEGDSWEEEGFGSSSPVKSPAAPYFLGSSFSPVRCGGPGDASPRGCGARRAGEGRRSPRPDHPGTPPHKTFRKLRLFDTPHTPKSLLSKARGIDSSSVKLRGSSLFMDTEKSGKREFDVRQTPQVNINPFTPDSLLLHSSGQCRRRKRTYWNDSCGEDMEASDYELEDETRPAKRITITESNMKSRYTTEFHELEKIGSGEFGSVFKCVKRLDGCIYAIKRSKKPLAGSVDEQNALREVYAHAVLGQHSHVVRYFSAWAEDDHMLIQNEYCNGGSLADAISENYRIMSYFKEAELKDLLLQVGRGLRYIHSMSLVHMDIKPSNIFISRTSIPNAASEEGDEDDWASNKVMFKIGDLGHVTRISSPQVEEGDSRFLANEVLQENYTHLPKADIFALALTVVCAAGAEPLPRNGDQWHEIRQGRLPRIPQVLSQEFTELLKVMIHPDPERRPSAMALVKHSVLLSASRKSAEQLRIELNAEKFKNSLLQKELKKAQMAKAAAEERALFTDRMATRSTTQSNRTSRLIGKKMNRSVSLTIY

Row | SMILES | IC50 [1] [nM] | EC50 [2] [nM] | Wee1A kinase Binding IC50 [1]
1 | COc1nc(Nc2cnn([C@@H]3CCCNCC3)c2)ncc1C(=O)Nc1c(Cl)cccc1Cl (single isomer, unassigned) [Compound 186] | ≤ 10 | > 1000 | –
2 | COc1nc(Nc2cnn([C@H]3CCCNCC3)c2)ncc1C(=O)Nc1c(Cl)cccc1Cl (single isomer, unassigned) [Compound 187] | ≤ 10 | > 1000 | –
3 | COc1nc(Nc2ccc(C3CCN(C)CC3)c(C)c2)ncc1C(=O)Nc1ccccc1 [Compound 101, 4-methoxy-2-((3-methyl-4-(1-methylpiperidin-4-yl)phenyl)amino)-N-phenylpyrimidine-5-carboxamide] | 10 to 100 | > 1000 | –
4 | COc1nc(Nc2ccc(C3CCN(C)CC3)c(C)c2)ncc1C(=O)Nc1ccccc1Br [Compound 107, N-(2-bromophenyl)-4-methoxy-2-((3-methyl-4-(1-methylpiperidin-4-yl)phenyl)amino)pyrimidine-5-carboxamide] | ≤ 10 | > 1000 | –
5 | COc1nc(Nc2ccc(C3CCN(C)CC3)c(C)c2)ncc1C(=O)Nc1c(C)ccnc1C [Compound 112, N-(2,4-dimethylpyridin-3-yl)-4-methoxy-2-{[3-methyl-4-(1-methylpiperidin-4-yl)phenyl]amino}pyrimidine-5-carboxamide] | 10 to 100 | – | –
6 | COc1nc(Nc2ccc(C3CCN(C)CC3)c(C)c2)ncc1C(=O)Nc1ccccc1C#N [Compound 115, N-(2-cyanophenyl)-4-methoxy-2-((3-methyl-4-(1-methylpiperidin-4-yl)phenyl)amino)pyrimidine-5-carboxamide] | 10 to 100 | – | –
7 | COc1nc(Nc2ccc(C3CCN(C)CC3)c(C)c2)ncc1C(=O)Nc1c(C)ccnc1Cl [Compound 117, N-(2-chloro-4-methylpyridin-3-yl)-4-methoxy-2-{[3-methyl-4-(1-methylpiperidin-4-yl)phenyl]amino}pyrimidine-5-carboxamide] | 10 to 100 | – | –
8 | COc1nc(Nc2ccc(C3CCN(C)CC3)c(C)c2)ncc1C(=O)Nc1cccc(O)c1 [Compound 118] | 10 to 100 | – | –
9 | CN(C)CCCOc1nc(Nc2ccc(N3CCN(C)CC3)cc2)ncc1C(=O)Nc1c(Cl)cccc1Cl [Compound 124, N-(2,6-dichlorophenyl)-4-(3-(dimethylamino)propoxy)-2-((4-(4-methylpiperazin-1-yl)phenyl)amino)pyrimidine-5-carboxamide] | – | – | C (IC50 greater than 100 nM but less than or equal to 5.00 nM)
10 | C#Cc1ccccc1NC(=O)c1cnc(Nc2ccc(C3CCN(C)CC3)c(C)c2)nc1OC [Compound 126, N-(2-ethynylphenyl)-4-methoxy-2-((3-methyl-4-(1-methylpiperidin-4-yl)phenyl)amino)pyrimidine-5-carboxamide] | 10 to 100 | – | –
11 | COc1nc(Nc2ccc(C3CCN(C)CC3)c(C)c2)ncc1C(=O)Nc1cc(C#N)ccc1Cl [Compound 131, N-(2-chloro-5-cyanophenyl)-4-methoxy-2-((3-methyl-4-(1-methylpiperidin-4-yl)phenyl)amino)pyrimidine-5-carboxamide] | – | – | C (IC50 greater than 100 nM but less than or equal to 5.00 nM)
12 | COc1nc(Nc2ccc(C3CCN(C)CC3)c(C)c2)ncc1C(=O)Nc1cnccc1Cl [Compound 139, N-(4-chloropyridin-3-yl)-4-methoxy-2-((3-methyl-4-(1-methylpiperidin-4-yl)phenyl)amino)pyrimidine-5-carboxamide] | 10 to 100 | – | –
13 | COc1nc(Nc2ccc(OCCN3CCOCC3)c(C)c2)ncc1C(=O)Nc1c(Cl)ccc(O)c1C [Compound 151, N-(6-chloro-3-hydroxy-2-methylphenyl)-4-methoxy-2-((3-methyl-4-(2-morpholinoethoxy)phenyl)amino)pyrimidine-5-carboxamide] | – | > 1000 | –
14 | COc1nc(Nc2cnn(C[C@H]3CCCN3)c2)ncc1C(=O)Nc1c(Cl)cccc1Cl [Compound 159] | 10 to 100 | – | –
15 | COc1nc(Nc2cnn(C[C@@H]3CCCN3)c2)ncc1C(=O)Nc1c(Cl)cccc1Cl [Compound 160] | 10 to 100 | – | –
16 | COc1nc(Nc2ccc(C3CCN(C)CC3)c(C)c2)ncc1C(=O)Nc1cc(NC(C)=O)ccc1C [Compound 169] | – | – | C (IC50 greater than 100 nM but less than or equal to 5.00 nM)
17 | COc1nc(Nc2ccc(C3CCN(C)CC3)c(C)c2)ncc1C(=O)Nc1cc([N+](=O)[O-])ccc1C [Compound 170] | – | – | C (IC50 greater than 100 nM but less than or equal to 5.00 nM)
18 | COc1nc(Nc2ccc(-c3ccn(C)c3)c(C)c2)ncc1C(=O)Nc1c(Cl)cccc1Br [Compound 191, N-(2-bromo-6-chlorophenyl)-4-methoxy-2-((3-methyl-4-(1-methyl-1H-pyrrol-3-yl)phenyl)amino)pyrimidine-5-carboxamide] | 10 to 100 | – | –

Further lines, with some results ahead:

Row | IC50 [1] [nM] | EC50 [2] [nM] | SMILES | Wee1A kinase Binding IC50 [1]
19 | ≤ 10 | 100 to 500 | COc1nc(Nc2cnn([C@@H]3CCCN(C)CC3)c2)ncc1C(=O)Nc1c(Cl)cccc1Cl (single isomer, unassigned) [Compound 188] | –
20 | ≤ 10 | 100 to 500 | CN1CCN(c2ccc(Nc3ncc(C(=O)Nc4c(Cl)cccc4Cl)c(OC4CC4)n3)cc2)CC1 [Compound 102, 4-cyclopropoxy-N-(2,6-dichlorophenyl)-2-((4-(4-methylpiperazin-1-yl)phenyl)amino)pyrimidine-5-carboxamide] | –
21 | 10 to 100 | – | CN1CCN(c2ccc(Nc3ncc(C(=O)Nc4c(Cl)cccc4Cl)c(OCC(F)(F)F)n3)cc2)CC1 [Compound 103, N-(2,6-dichlorophenyl)-2-{[4-(4-methylpiperazin-1-yl)phenyl]amino}-4-(2,2,2-trifluoroethoxy)pyrimidine-5-carboxamide] | –
22 | ≤ 10 | 100 to 500 | Cc1cc(Nc2ncc(C(=O)Nc3c(Cl)cccc3Cl)c(OCC(F)(F)F)n2)ccc1C1CCN(C)CC1 [Compound 104, N-(2,6-dichlorophenyl)-2-{[3-methyl-4-(1-methylpiperidin-4-yl)phenyl]amino}-4-(2,2,2-trifluoroethoxy)pyrimidine-5-carboxamide] | –
23 | ≤ 10 | > 1000 | CN1CCN(c2ccc(Nc3ncc(C(=O)Nc4c(Cl)cccc4Cl)c(OCC4CCCO4)n3)cc2)CC1 (stereo not shown) [Compound 105] | –
24 | ≤ 10 | 100 to 500 | COc1nc(Nc2ccc(C3CCN(C)CC3)c(C)c2)ncc1C(=O)Nc1c(C)cccc1Cl [Compound 106, N-(2-chloro-6-methylphenyl)-4-methoxy-2-((3-methyl-4-(1-methylpiperidin-4-yl)phenyl)amino)pyrimidine-5-carboxamide] | –
25 | 10 to 100 | – | COc1nc(Nc2ccc(C3CCN(C)CC3)c(C)c2)ncc1C(=O)Nc1ccccc1Cl [Compound 109, N-(2-chlorophenyl)-4-methoxy-2-((3-methyl-4-(1-methylpiperidin-4-yl)phenyl)amino)pyrimidine-5-carboxamide] | –
26 | 10 to 100 | – | COc1nc(Nc2ccc(C(=O)N3CCN(C)CC3)c(C)c2)ncc1C(=O)Nc1c(Cl)cccc1Cl [Compound 168] | –
27 | 10 to 100 | – | COc1nc(Nc2ccc(C3CCN(C)CC3)nc2)ncc1C(=O)Nc1c(Cl)cccc1Cl [Compound 183, N-2,6-dichlorophenyl-4-methoxy-2-[6-(1-methyl-4-piperidyl)-3-pyridylamino]-5-pyrimidinecarboxamide] | –
28 | ≤ 10 | – | COc1nc(Nc2ccc([C@H]3CCCN(C)CC3)c(C)c2)ncc1C(=O)Nc1c(Cl)cccc1Br [Compound 208] | –
